{"source": "patent US20250049832A1", "about": "“CRYSTAL FORM OF NUCLEOSIDE COMPOUND” (priority 2021, published 2025)", "key": {"[1]": {"experiment": "Solid stability study (XRPD and HPLC purity after storage)", "assay_type": "physicochemical", "description": "X-ray powder diffraction patterns were collected using a zero-background sample plate on a Bruker D8 Advance X-ray diffractometer equipped with an autosampler. The radiation source used was Cu Kα (λ=1.5418 Å), with the X-ray tube voltage set at 40 kV and the X-ray tube current set at 40 mA. The divergence slit for the X-rays was 0.6 mm. A suitable amount of the sample was placed in the center of the zero-background sample plate under the ambient condition and lightly pressed with a clean glass slide to obtain a smooth, flat surface. The zero-background sample holder was then fixed. Diffraction analysis of the sample was performed with a scan step size of 0.02° (2θ) over a range of 3-40° (2θ). The software used for data collection was DIFFRAC.COMMANDER, and the data were analyzed and presented using DIFFRAC.EVA. The instrument used for liquid chromatography analysis is the Agilent HPLC 1260 series. [table] The ATV014 crystalline form I obtained from Example 2, batch number 41579-025-C1, was used for solid stability studies. The samples were placed under the conditions shown in Table 5, and then their XRPD and purity were tested."}, "physchem": {"experiment": "physchem", "assay_type": "physicochemical", "experimental": "Based on the salt screening study results, the solubility of ATV014 crystalline form I obtained in Example 2, batch number 41579-025-C5, was determined at 37° C. in FaSSIF, FeSSIF, SGF, and water at 0.5 h, 2 h, and 24 h. The solubility of the sample is pH-dependent, meaning that the lower the pH, the higher the solubility."}, "[2]": {"experiment": "Dynamic vapor sorption analysis (DVS), hygroscopicity", "assay_type": "physicochemical", "details": "for DVS Hygroscopic weight gain %: 25° C., batch 41579-025-C5", "experimental": "Vapor sorption/desorption data of the sample was obtained using DVS Intrinsic. A sample of 10-50 mg was weighed and placed in the sample chamber for automatic weighing. Parameters were set according to Table 1 to analyze the hygroscopicity of the sample.\nThe ATV014 crystalline form I obtained in Example 2 with batch number 41579-025-C5 was subjected to PLM (Polarized Light Microscopy Analysis), XRPD (X-ray Powder Diffraction), DSC (Differential Scanning calorimetry), TGA (Thermogravimetric Analysis), and DVS (Dynamic Vapor Sorption Instrument) testing."}, "[3]": {"experiment": "Activity of ATV014 compared to GS-441524 (inventor's research)", "description": "(§1) The compound represented by the formula ATV014 is a derivative of the compound GS-441524."}, "[4]": {"description": "as §1"}, "SARS-CoV-2": {"system": "SARS-CoV-2", "details": "in vivo activity tests in mice; cited from earlier work"}, "[5]": {"details": "40° C./75% RH, open container, 7 days"}, "[6]": {"details": "60° C., closed container, 7 days"}, "[7]": {"details": "Room temperature/92.5% RH, open container, 7 days"}}}
{"smiles": "N#C[C@@]1(c2ccc3c(N)ncnn23)O[C@H](COC(=O)C2CCCCC2)[C@@H](O)[C@H]1O", "note": "[ATV014 crystalline form I]", "values": [{"measurement": "Purity %", "setting": "[1]; 0 day (start of stability study), batch 41579-025-C1", "value": 98.12, "unit": "%"}, {"measurement": "Purity %", "setting": "[1]; [5]", "value": 98.09, "unit": "%"}, {"measurement": "XRPD result", "setting": "[1]; [5]", "value": "No change"}, {"measurement": "Purity %", "setting": "[1]; [6]", "value": 98.10, "unit": "%"}, {"measurement": "XRPD result", "setting": "[1]; [6]", "value": "No change"}, {"measurement": "physical and chemical properties after storage", "setting": "[1]; 7 days under 40° C./75% RH, 60° C., and 92.5% RH", "value": "remained stable"}, {"measurement": "Purity %", "setting": "[1]; [7]", "value": 98.19, "unit": "%"}, {"measurement": "XRPD result", "setting": "[1]; [7]", "value": "No change"}, {"measurement": "crystalline form of remaining solids during solubility determination (XRPD)", "setting": "physchem", "value": "the crystalline form did not change"}, {"measurement": "Solubility", "setting": "physchem; 37 °C, pH 1.24, simulated gastric fluid, thermodynamic from solid", "value": "~2900", "unit": "µg/mL"}, {"measurement": "Solubility", "setting": "physchem; 37 °C, pH 5.53, water, thermodynamic from solid", "value": "~5", "unit": "µg/mL"}, {"measurement": "Solubility", "setting": "physchem; 0.5 h, pH 1.24", "value": 2480, "unit": "µg/mL"}, {"measurement": "Solubility", "setting": "physchem; 2 h, pH 1.24", "value": 2560, "unit": "µg/mL"}, {"measurement": "Solubility", "setting": "physchem; 24 h, pH 1.24", "value": 2860, "unit": "µg/mL"}, {"measurement": "XPRD (remaining solid)", "setting": "physchem; 24 h, pH 5.53", "value": "Unchanged"}, {"measurement": "XPRD (remaining solid)", "setting": "physchem; simulated gi fluid, 24 h, pH 1.24", "value": "Unchanged"}, {"measurement": "XPRD (remaining solid)", "setting": "physchem; simulated gi fluid, 24 h, pH 4.95", "value": "Unchanged"}, {"measurement": "XPRD (remaining solid)", "setting": "physchem; simulated gi fluid, 24 h, pH 6.45", "value": "Unchanged"}, {"measurement": "hygroscopicity (DVS results)", "setting": "[2]", "value": "low hygroscopicity"}, {"measurement": "DVS Hygroscopic weight gain %", "setting": "[2]; 80% RH", "value": "80% RH: 0.31%."}, {"measurement": "DVS Hygroscopic weight gain %", "setting": "[2]; 90% RH", "value": "90% RH: 0.40%."}, {"measurement": "Crystalline form after DVS testing", "setting": "[2]; after full sorption/desorption cycle", "value": "unchanged after"}]}
{"smiles": "N#C[C@@]1(c2ccc3c(N)ncnn23)O[C@H](COC(=O)C2CCCCC2)[C@@H](O)[C@H]1O", "note": "[ATV014]", "values": [{"measurement": "activity compared to the compound GS-441524", "setting": "[3]", "value": "better"}, {"measurement": "bioavailability compared to the compound GS-441524", "setting": "[4]", "value": "better"}]}
{"smiles": "N#C[C@@]1(c2ccc3c(N)ncnn23)O[C@H](CO)[C@@H](O)[C@H]1O", "note": "[GS-441524]", "values": [{"measurement": "antiviral activity compared to Remdesivir", "setting": "SARS-CoV-2", "value": "superior antiviral activity compared to Remdesivir"}]}
